Laboratory results as given in ChEMBL document CHEMBL1148125, “Total synthesis and bioactivity of some naturally occurring pterulones” (2002).

What was measured:
Assay type in all cases: functional
Rhodotorula glutinis [1] = experiment: Antimicrobial activity against Rhodotorula glutinis ATCC 201718 assessed as relative growth at 50 ug/mL after 24 to 48 hrs relative to control
Saccharomyces cerevisiae [2] = experiment: Antimicrobial activity against Saccharomyces cerevisiae CBS 1394 assessed as relative growth at 100 ug/mL after 24 to 48 hrs relative to control
Rhodotorula glutinis [3] = experiment: Antimicrobial activity against Rhodotorula glutinis ATCC 201718 assessed as relative growth at 100 ug/mL after 24 to 48 hrs relative to control
Saccharomyces cerevisiae [4] = experiment: Antimicrobial activity against Saccharomyces cerevisiae CBS 1394 assessed as relative growth at 50 ug/mL after 24 to 48 hrs relative to control

| SMILES | Activity (Rhodotorula glutinis [1]) [%] | Activity (Saccharomyces cerevisiae [2]) [%] | Activity (Rhodotorula glutinis [3]) [%] | Activity (Saccharomyces cerevisiae [4]) [%] |
| --- | --- | --- | --- | --- |
| CC(=O)c1ccc2c(c1)C=C/C(=C/Cl)CO2 | 58 | 84 | 40 | 91 |
| OCc1ccc2c(c1)C=C/C(=C/Cl)CO2 | 5.5 | 1 | <1 | 89 |
| O=Cc1ccc2c(c1)C=C/C(=C/Cl)CO2 | 96 | 87 | 65 | 91 |
